Laboratory results taken from US9302999B2, “Substituted triazoles as herbicides” (E. I. DU PONT DE NEMOURS AND COMPANY, priority 2012, dated 2016).

What was measured:
Assay type in all cases: in vivo
[1] = system: foxtail, giant (giant foxtail, Setaria faberii); assay: Test A pre-/postemergence: foxtail, giant
Outline: (§1)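 Visual 0–100 injury ratings (0 no effect, 100 complete control) taken about ten days after treatment, relative to untreated controls. Preemergence treatment was a directed soil spray; postemergence plants were 2–10 cm tall at one- to two-leaf stage. Soil: loam/sand blend.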

[2] = system: morningglory (Ipomoea spp.); assay: Test A pre-/postemergence: morningglory
Outline: as §1

[3] = system: corn (Zea mays); assay: Test A pre-/postemergence: corn
Outline: as §1

[4] = system: sedge, umbrella (small-flower umbrella sedge Cyperus difformis); assay: Test B flooded paddy: sedge, umbrella; conditions: Flood, applied to paddy water at 2-leaf stage, visually evaluated after 13 to 15 days
Outline: (§2)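 At two leaves, seedlings received the test compound via the paddy water, pots having been flooded 3 cm over the soil surface and kept so. Greenhouse-held for 13 to 15 days, then judged by eye against controls on a scale running 0 (no effect) to 100 (complete control).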

[5] = system: ducksalad (Heteranthera limosa); assay: Test B flooded paddy: ducksalad; conditions: Flood, applied to paddy water at 2-leaf stage, visually evaluated after 13 to 15 days
Outline: as §2

[6] = system: ryegrass, Italian (Italian ryegrass, Lolium multiflorum); assay: Test C pre-/postemergence: ryegrass, Italian
Outline: (§3)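 Visual injury scored 0–100 (100 = complete control) against untreated controls after 13–15 greenhouse days. Surfactant-containing solvent formulations applied either to soil after sowing (loam/sand) or over 1- to 4-leaf plants, 2–18 cm tall.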

[7] = system: johnsongrass (Sorghum halepense); assay: Test C pre-/postemergence: johnsongrass
Outline: as §3

[8] = system: kochia (Kochia scoparia); assay: Test C pre-/postemergence: kochia
Outline: as §3

[9] = system: ragweed (common ragweed, Ambrosia elation); assay: Test C pre-/postemergence: ragweed
Outline: as §3

[10] = system: soybean (Glycine max); assay: Test C pre-/postemergence: soybean
Outline: as §3

[11] = system: chickweed (common chickweed, Stellaria media); assay: Test C postemergence: chickweed
Outline: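 Visual ratings of 0 (no effect) to 100 (complete control) were made against controls 13-15 days after a postemergence spray, with plants kept in a greenhouse. Plants were 2-18 cm tall (1- to 4-leaf stage) in Redi-Earth peat/vermiculite medium at treatment.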

[12] = Postemergence, 125 g ai/ha, 0 to 100 scale, 0 is no effect, 100 is complete control
[13] = Postemergence, 500 g ai/ha, visual rating on 0 to 100 scale (0 no effect, 100 complete control), approximately ten days
[14] = Preemergence, 125 g ai/ha, 0 to 100 scale where 0 is no effect and 100 is complete control
[15] = Preemergence, 500 g ai/ha, 0 to 100 scale (0 no effect, 100 complete control)
[16] = Postemergence, 31 g ai/ha, scale 0 to 100 (0 no effect, 100 complete control)
[17] = Postemergence, 62 g ai/ha, scale 0 to 100 (0 no effect, 100 complete control)
[18] = Postemergence, 125 g ai/ha, scale 0 to 100, 0 no effect, 100 complete control
[19] = Postemergence, 250 g ai/ha, scale 0 to 100
[20] = Preemergence, 31 g ai/ha, scale of 0 to 100, 0 is no effect, 100 is complete control
[21] = Preemergence, 62 g ai/ha, scale of 0 to 100, 0 is no effect, 100 is complete control
[22] = Preemergence, 250 g ai/ha, scale 0 to 100, 0 no effect, 100 complete control
[23] = Preemergence, 125 g ai/ha, scale 0 to 100, 0 no effect, 100 complete control
[24] = 31 g ai/ha, scale 0 to 100 (0 no effect, 100 complete control)
[25] = 62 g ai/ha, scale 0 to 100 (0 no effect, 100 complete control)
[26] = 125 g ai/ha, scale 0 to 100, 0 no effect, 100 complete control
[27] = Postemergence, 500 g ai/ha, 0 to 100 scale, 0 is no effect, 100 is complete control
[28] = Postemergence, 250 g ai/ha, scale 0 to 100 (0 no effect, 100 complete control)
[29] = Preemergence, 31 g ai/ha, scale 0 (no effect) to 100 (complete control)

COc1nn(-c2cccc(F)c2)nc1Cc1ccnc(C(F)(F)F)c1 [Compound 139]
Foxtail, Giant plant response rating [1, 12]: 90 | Foxtail, Giant plant response rating [1, 13]: 100 | Plant response rating, Foxtail, Giant [1, 14]: 100 | Plant response rating, Foxtail, Giant [1, 15]: 100 | Plant response rating, Morningglory [2, 12]: 80 | Morningglory plant response rating [2, 13]: 100 | Plant response rating, Morningglory [2, 14]: 50 | Plant response rating, Morningglory [2, 15]: 70 | Corn plant response rating [3, 12]: 30 | Corn plant response rating [3, 13]: 50 | Plant response rating, Corn [3, 14]: 10 | Plant response rating, Corn [3, 15]: 30 | Plant response rating, Sedge, Umbrella (0 to 100 scale, 0 is no effect, 100 is complete control) ([4]; 250 g ai/ha): 80 | Plant response rating, Ducksalad (0 to 100 scale, 0 is no effect, 100 is complete control) ([5]; 250 g ai/ha): 70 | Plant response rating, Ryegrass, Italian [6, 16]: 25 | Plant response rating, Ryegrass, Italian [6, 17]: 30 | Plant response rating, Ryegrass, Italian [6, 18]: 30 | Plant response rating, Ryegrass, Italian [6, 19]: 40 | Plant response rating, Ryegrass, Italian [6, 20]: 35 | Plant response rating, Ryegrass, Italian [6, 21]: 60 | Plant response rating, Ryegrass, Italian [6, 22]: 90 | Plant response rating, Johnsongrass [7, 16]: 30 | Plant response rating, Johnsongrass [7, 17]: 50 | Plant response rating, Johnsongrass [7, 18]: 80 | Plant response rating, Johnsongrass [7, 19]: 80 | Plant response rating, Johnsongrass [7, 20]: 15 | Plant response rating, Johnsongrass [7, 21]: 45 | Plant response rating, Johnsongrass [7, 23]: 100 | Plant response rating, Johnsongrass [7, 22]: 100 | Plant response rating, Kochia [8, 16]: 85 | Plant response rating, Kochia [8, 17]: 85 | Plant response rating, Kochia [8, 18]: 90 | Plant response rating, Kochia [8, 19]: 90 | Plant response rating, Kochia [8, 20]: 65 | Plant response rating, Kochia [8, 21]: 75 | Plant response rating, Kochia [8, 23]: 90 | Plant response rating, Kochia [8, 22]: 100 | Plant response rating, Ragweed [9, 17]: 40 | Plant response rating, Ragweed [9, 18]: 45 | Plant response rating, Ragweed [9, 19]: 75 | Plant response rating, Ragweed [9, 20]: 0 | Plant response rating, Ragweed [9, 21]: 0 | Plant response rating, Ragweed [9, 23]: 30 | Plant response rating, Ragweed [9, 22]: 55 | Plant response rating, Soybean [10, 16]: 40 | Plant response rating, Soybean [10, 17]: 40 | Plant response rating, Soybean [10, 18]: 45 | Plant response rating, Soybean [10, 19]: 45 | Plant response rating, Soybean [10, 20]: 5 | Plant response rating, Soybean [10, 21]: 15 | Plant response rating, Soybean [10, 23]: 25 | Plant response rating, Soybean [10, 22]: 25 | Plant response rating, Chickweed [11, 24]: 75 | Plant response rating, Chickweed [11, 25]: 98 | Plant response rating, Chickweed [11, 26]: 98 | Plant response rating, Chickweed ([11]; 250 g ai/ha, scale 0 to 100): 100

CCc1nn(-c2ccc(C(F)(F)F)c(F)c2)nc1Oc1ccnc(C(F)(F)F)c1 [Compound 183]
Plant response rating, Foxtail, Giant [1, 12]: 90 | Foxtail, Giant plant response rating [1, 27]: 90 | Plant response rating, Foxtail, Giant [1, 14]: 100 | Plant response rating, Foxtail, Giant [1, 15]: 100 | Plant response rating, Morningglory [2, 12]: 100 | Morningglory plant response rating [2, 27]: 100 | Plant response rating, Morningglory [2, 14]: 70 | Plant response rating, Morningglory [2, 15]: 90 | Plant response rating, Corn [3, 12]: 20 | Corn plant response rating [3, 27]: 50 | Plant response rating, Corn [3, 14]: 20 | Plant response rating, Corn [3, 15]: 30 | Plant response rating, Sedge, Umbrella (0 to 100 scale, 0 is no effect, 100 is complete control) ([4]; 125 g ai/ha): 95 | Plant response rating, Ducksalad (0 to 100 scale, 0 is no effect, 100 is complete control) ([5]; 125 g ai/ha): 65 | Plant response rating, Ryegrass, Italian [6, 16]: 10 | Plant response rating, Ryegrass, Italian [6, 17]: 15 | Plant response rating, Ryegrass, Italian [6, 18]: 20 | Plant response rating, Ryegrass, Italian [6, 28]: 40 | Plant response rating, Ryegrass, Italian [6, 29]: 65 | Plant response rating, Ryegrass, Italian [6, 21]: 80 | Plant response rating, Ryegrass, Italian [6, 23]: 90 | Plant response rating, Ryegrass, Italian [6, 22]: 95 | Plant response rating, Johnsongrass [7, 16]: 20 | Plant response rating, Johnsongrass [7, 17]: 30 | Plant response rating, Johnsongrass [7, 18]: 50 | Plant response rating, Johnsongrass [7, 28]: 75 | Plant response rating, Johnsongrass [7, 29]: 10 | Plant response rating, Johnsongrass [7, 21]: 35 | Plant response rating, Johnsongrass [7, 23]: 80 | Plant response rating, Johnsongrass [7, 22]: 95 | Plant response rating, Kochia [8, 16]: 90 | Plant response rating, Kochia [8, 17]: 90 | Plant response rating, Kochia [8, 18]: 90 | Plant response rating, Kochia [8, 28]: 95 | Plant response rating, Ragweed [9, 16]: 65 | Plant response rating, Ragweed [9, 17]: 80 | Plant response rating, Ragweed [9, 18]: 90 | Plant response rating, Ragweed [9, 28]: 95 | Plant response rating, Ragweed [9, 29]: 50 | Plant response rating, Ragweed [9, 21]: 50 | Plant response rating, Ragweed [9, 23]: 95 | Plant response rating, Ragweed [9, 22]: 95 | Plant response rating, Soybean [10, 16]: 35 | Plant response rating, Soybean [10, 17]: 55 | Plant response rating, Soybean [10, 18]: 55 | Plant response rating, Soybean [10, 28]: 90 | Plant response rating, Soybean [10, 29]: 5 | Plant response rating, Soybean [10, 21]: 5 | Plant response rating, Soybean [10, 23]: 10 | Plant response rating, Soybean [10, 22]: 30 | Plant response rating, Chickweed [11, 24]: 75 | Plant response rating, Chickweed [11, 25]: 75 | Plant response rating, Chickweed [11, 26]: 80 | Plant response rating, Chickweed ([11]; 250 g ai/ha, scale 0 to 100): 98
